Key:
[1] = target: Melanocortin receptor 4 (Homo sapiens, UniProt P32245)
[2] = target: T1, Corticotropin-releasing factor receptor 2 (Homo sapiens, UniProt Q13324)
T1 sequence (Q13324 whole entry): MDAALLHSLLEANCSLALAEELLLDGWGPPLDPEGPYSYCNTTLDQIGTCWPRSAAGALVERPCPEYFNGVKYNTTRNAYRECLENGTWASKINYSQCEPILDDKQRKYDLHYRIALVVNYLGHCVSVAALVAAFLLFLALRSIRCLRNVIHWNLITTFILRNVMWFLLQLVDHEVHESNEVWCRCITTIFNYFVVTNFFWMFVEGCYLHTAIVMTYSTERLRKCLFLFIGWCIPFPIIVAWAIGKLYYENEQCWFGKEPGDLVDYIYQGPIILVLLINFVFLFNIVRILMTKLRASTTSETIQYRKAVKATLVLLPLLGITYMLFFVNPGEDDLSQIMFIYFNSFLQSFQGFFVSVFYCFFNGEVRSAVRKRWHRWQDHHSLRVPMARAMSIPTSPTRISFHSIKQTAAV

[3] = target: T2, Alpha-2A adrenergic receptor (Homo sapiens, UniProt P08913)
T2 sequence (P08913 whole entry): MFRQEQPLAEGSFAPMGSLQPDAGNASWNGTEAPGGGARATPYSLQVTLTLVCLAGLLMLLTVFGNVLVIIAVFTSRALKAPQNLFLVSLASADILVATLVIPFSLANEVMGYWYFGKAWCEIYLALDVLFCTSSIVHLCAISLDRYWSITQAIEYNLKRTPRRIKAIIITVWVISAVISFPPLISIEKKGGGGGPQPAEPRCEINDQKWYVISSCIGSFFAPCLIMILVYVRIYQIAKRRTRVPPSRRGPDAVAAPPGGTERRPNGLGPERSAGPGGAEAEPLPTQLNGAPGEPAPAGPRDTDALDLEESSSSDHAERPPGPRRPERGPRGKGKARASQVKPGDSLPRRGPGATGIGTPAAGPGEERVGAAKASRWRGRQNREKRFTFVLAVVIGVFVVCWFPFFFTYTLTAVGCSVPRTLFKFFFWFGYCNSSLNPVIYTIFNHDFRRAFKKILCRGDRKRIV

[4] = target: T3, Corticotropin-releasing factor receptor 1 (Homo sapiens, UniProt P34998)
T3 sequence (P34998 whole entry): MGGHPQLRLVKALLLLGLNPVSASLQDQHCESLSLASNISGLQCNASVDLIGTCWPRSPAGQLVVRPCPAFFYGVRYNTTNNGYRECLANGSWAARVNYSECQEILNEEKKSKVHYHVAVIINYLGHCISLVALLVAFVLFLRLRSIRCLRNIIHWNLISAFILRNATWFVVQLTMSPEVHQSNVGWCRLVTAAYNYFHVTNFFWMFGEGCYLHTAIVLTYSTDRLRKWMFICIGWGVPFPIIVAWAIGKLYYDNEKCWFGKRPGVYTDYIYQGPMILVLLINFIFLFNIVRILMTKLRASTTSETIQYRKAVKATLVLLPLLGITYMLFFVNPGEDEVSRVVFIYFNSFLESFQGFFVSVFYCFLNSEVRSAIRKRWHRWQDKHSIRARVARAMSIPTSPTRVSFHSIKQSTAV

[5] = target: 5-hydroxytryptamine receptor 2A (Homo sapiens, UniProt P28223); type: functional, cell-based
[6] = target: T4, Gastric inhibitory polypeptide receptor (Homo sapiens, UniProt P48546)
T4 sequence (P48546 whole entry): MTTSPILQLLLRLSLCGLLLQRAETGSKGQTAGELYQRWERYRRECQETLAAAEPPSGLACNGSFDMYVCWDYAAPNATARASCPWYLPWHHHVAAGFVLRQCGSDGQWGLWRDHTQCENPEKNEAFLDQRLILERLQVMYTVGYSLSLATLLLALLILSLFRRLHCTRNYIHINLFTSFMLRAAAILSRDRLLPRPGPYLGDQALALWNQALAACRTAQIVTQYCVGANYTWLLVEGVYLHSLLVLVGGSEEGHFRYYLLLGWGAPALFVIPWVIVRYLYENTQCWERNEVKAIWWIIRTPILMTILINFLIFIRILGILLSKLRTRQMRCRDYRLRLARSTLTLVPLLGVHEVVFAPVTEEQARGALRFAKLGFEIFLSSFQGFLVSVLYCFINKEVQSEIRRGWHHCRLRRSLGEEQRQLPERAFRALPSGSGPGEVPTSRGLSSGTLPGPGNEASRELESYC

[7] = target: Substance-P receptor (Homo sapiens, UniProt P25103)
[8] = target: Neurotensin receptor type 1 (Homo sapiens, UniProt P30989)
[9] = target: T5, Alpha-1A adrenergic receptor (Homo sapiens, UniProt P35348)
T5 sequence (P35348 whole entry): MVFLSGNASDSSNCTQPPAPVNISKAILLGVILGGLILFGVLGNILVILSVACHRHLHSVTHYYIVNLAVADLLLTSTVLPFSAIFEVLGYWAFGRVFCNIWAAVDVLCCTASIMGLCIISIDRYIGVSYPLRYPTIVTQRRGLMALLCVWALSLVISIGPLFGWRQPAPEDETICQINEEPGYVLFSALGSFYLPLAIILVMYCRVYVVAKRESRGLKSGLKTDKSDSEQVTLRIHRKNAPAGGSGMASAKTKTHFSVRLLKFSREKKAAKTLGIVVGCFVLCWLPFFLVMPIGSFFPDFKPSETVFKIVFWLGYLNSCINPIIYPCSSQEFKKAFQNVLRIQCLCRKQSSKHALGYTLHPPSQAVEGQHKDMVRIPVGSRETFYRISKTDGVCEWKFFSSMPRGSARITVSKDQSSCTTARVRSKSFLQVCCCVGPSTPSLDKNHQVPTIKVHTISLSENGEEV
Note: assay procedure not described here.

Neurotensin receptor type 1, sequence (P30989 whole entry): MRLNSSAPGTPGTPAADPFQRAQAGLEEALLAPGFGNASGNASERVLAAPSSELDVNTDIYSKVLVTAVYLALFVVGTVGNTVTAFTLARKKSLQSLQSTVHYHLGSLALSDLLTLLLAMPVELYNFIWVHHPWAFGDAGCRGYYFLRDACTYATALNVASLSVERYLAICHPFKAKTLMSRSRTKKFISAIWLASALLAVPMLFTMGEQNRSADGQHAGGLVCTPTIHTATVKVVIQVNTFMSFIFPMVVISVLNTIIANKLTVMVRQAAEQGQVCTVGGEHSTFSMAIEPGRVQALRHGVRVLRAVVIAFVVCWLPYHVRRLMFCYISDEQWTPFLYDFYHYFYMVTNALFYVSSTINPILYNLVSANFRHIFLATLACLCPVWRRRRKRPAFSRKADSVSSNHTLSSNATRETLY
Melanocortin receptor 4, sequence (P32245 whole entry): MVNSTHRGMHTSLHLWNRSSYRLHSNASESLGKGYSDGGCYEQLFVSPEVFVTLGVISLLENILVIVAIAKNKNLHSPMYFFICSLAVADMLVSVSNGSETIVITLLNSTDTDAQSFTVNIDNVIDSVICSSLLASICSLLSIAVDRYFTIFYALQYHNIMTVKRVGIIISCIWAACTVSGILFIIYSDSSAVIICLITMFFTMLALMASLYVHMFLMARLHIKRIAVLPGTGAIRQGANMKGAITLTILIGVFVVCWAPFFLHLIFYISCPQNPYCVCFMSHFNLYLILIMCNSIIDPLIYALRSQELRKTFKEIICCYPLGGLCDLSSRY
5-hydroxytryptamine receptor 2A, sequence (P28223 whole entry): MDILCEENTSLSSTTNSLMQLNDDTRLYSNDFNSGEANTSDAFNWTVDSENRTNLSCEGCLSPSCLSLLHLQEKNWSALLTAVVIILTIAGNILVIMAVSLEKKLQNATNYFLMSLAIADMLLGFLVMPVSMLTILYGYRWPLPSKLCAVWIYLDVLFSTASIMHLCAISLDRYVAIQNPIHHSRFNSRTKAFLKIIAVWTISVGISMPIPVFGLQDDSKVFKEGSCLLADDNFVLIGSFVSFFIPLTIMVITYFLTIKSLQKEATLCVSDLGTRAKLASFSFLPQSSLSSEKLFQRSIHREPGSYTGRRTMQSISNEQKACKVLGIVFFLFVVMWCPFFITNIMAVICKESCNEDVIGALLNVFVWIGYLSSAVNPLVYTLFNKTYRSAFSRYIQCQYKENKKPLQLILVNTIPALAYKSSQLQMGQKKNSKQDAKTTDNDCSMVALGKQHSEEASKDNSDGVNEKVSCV
Substance-P receptor, sequence (P25103 whole entry): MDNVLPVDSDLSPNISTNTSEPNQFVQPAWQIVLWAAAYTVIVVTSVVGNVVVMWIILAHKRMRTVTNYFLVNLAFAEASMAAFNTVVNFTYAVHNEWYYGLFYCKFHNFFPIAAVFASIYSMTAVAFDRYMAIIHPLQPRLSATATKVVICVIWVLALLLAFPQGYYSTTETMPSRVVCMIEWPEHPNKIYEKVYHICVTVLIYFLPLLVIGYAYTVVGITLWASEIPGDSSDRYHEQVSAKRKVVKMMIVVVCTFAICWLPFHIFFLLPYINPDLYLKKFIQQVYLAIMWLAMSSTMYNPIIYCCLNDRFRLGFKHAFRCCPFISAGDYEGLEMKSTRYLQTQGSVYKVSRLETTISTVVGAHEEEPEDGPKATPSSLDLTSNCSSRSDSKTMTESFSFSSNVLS

`CCCCCNC(=N)N/N=C/c1c[nH]c2ccc(OC)cc12` [TEGASEROD] was tested, and the AC50 [1] was 5.34 µM, the AC50 [2] was over 30 µM and the AC50 [3] was 0.31 µM. For the same compound, the AC50 [4] was over 30 µM, the AC50 [5] was over 30 µM and the AC50 [6] was over 30 µM. For the same compound, the AC50 [7] was over 10 µM and the AC50 [8] was over 30 µM.
Work on `O=[N+]([O-])O[C@@H]1CO[C@H]2[C@@H]1OC[C@@H]2O` [ISOSORBIDE MONONITRATE] yielded an AC50 [1] of over 30 µM, an AC50 [2] of over 30 µM and an AC50 [3] of over 10 µM. The AC50 [4] was over 30 µM, the AC50 [6] was over 30 µM and the AC50 [7] was over 10 µM. It also gave an AC50 [8] of over 30 µM.
`CN(C)CC/C=C1\c2ccccc2CSc2ccccc21` [DOTHIEPIN] showed an AC50 [5] of over 30 µM.
`CC[C@@H](C(N)=O)N1CCCC1=O` showed an AC50 [5] of over 30 µM.
With `Cc1oc(=O)oc1CN1CCN(c2cc3c(cc2F)c(=O)c(C(=O)O)c2n3C(C)S2)CC1` (centres undefined) [PRULIFLOXACIN] the AC50 [9] was over 30 µM and the AC50 [5] was over 30 µM.
`COc1cc2nc(N3CCN(C(=O)c4ccco4)CC3)nc(N)c2cc1OC` [PRAZOSIN] gave an AC50 [1] of over 30 µM, an AC50 [2] of over 30 µM and an AC50 [4] of over 30 µM. For the same compound, the AC50 [6] was over 30 µM, the AC50 [7] was over 10 µM and the AC50 [8] was over 30 µM.
With `COc1ccccc1N1CCN(CC(O)COc2cccc3ccccc23)CC1` (centres undefined) [NAFTOPIDIL] the AC50 [9] was 0.02 µM and the AC50 [5] was over 30 µM.
`Nc1ccncc1N` [AMIFAMPRIDINE] gave an AC50 [9] of over 30 µM.
For `CCOc1ccc(Cc2cc([C@@H]3O[C@H](CO)[C@@H](O)[C@H](O)[C@H]3O)ccc2Cl)cc1` [DAPAGLIFLOZIN], the AC50 [1] was over 30 µM and the AC50 [3] was 8.66 µM.
`COc1ccc(C(=O)Nc2ccccc2CCC2CCCCN2C)cc1` (centres undefined) [ENCAINIDE] was tested, and the AC50 [1] was over 30 µM, the AC50 [2] was over 30 µM and the AC50 [3] was over 10 µM. The AC50 [4] was over 30 µM, the AC50 [5] was over 30 µM and the AC50 [6] was over 30 µM. The AC50 [7] was over 10 µM and the AC50 [8] was over 30 µM.
Compound `C=CCCCCCCCCC(=O)O` [UNDECYLENIC ACID] has an AC50 [9] of over 30 µM.
Work on `O=[N+]([O-])c1cn2c(n1)OC[C@@H](OCc1ccc(OC(F)(F)F)cc1)C2` [PRETOMANID] yielded an AC50 [1] of over 30 µM, an AC50 [3] of over 10 µM and an AC50 [7] of over 10 µM. For the same compound, the AC50 [8] was over 10 µM.
`CCOc1ccccc1OCC1CNCCO1` (centres undefined) [VILOXAZINE] was tested, and the AC50 [1] was over 30 µM, the AC50 [2] was over 30 µM and the AC50 [3] was over 10 µM. The AC50 [4] was over 30 µM, the AC50 [6] was over 30 µM and the AC50 [7] was over 10 µM. It also gave an AC50 [8] of over 30 µM.
`COC1=C(OC)C(=O)C(C/C=C(\C)CC/C=C(\C)CC/C=C(\C)CC/C=C(\C)CC/C=C(\C)CC/C=C(\C)CC/C=C(\C)CC/C=C(\C)CC/C=C(\C)CCC=C(C)C)=C(C)C1=O` [UBIDECARENONE] was tested, and the AC50 [5] was over 30 µM.
`CN(C)CCc1c[nH]c2ccc(C[C@H]3COC(=O)N3)cc12` [ZOLMITRIPTAN] was tested, and the AC50 [5] was 14 µM.
`C=CCN1C[C@H](C(=O)N(CCCN(C)C)C(=O)NCC)C[C@@H]2c3cccc4[nH]cc(c34)C[C@H]21` [CABERGOLINE] was tested, and the AC50 [1] was over 10 µM and the AC50 [5] was 0.0626 µM.
For `CCCC1O[C@@H]2C[C@H]3[C@@H]4CCC5=CC(=O)C=C[C@]5(C)[C@H]4[C@@H](O)C[C@]3(C)[C@]2(C(=O)CO)O1` (some centres undefined) [BUDESONIDE], the AC50 [1] was over 10 µM.
With `CN1CCN(C2=Nc3ccccc3Sc3ccc(Cl)cc32)CC1` [CLOTHIAPINE] the AC50 [5] was over 30 µM.
Compound `CN(C)CCC=C1c2ccccc2C=Cc2ccccc21` [CYCLOBENZAPRINE] has an AC50 [1] of over 30 µM, an AC50 [2] of over 30 µM and an AC50 [4] of over 30 µM. It also gave an AC50 [6] of over 30 µM and an AC50 [8] of over 30 µM.
`Cc1cc(C)c(NC(=O)CN(CC(=O)O)CC(=O)O)c(C)c1Br` [MEBROFENIN] was tested, and the AC50 [9] was over 30 µM and the AC50 [5] was over 30 µM.
`CC[C@H]1CN2CCc3cc(OC)c(OC)cc3[C@@H]2C[C@@H]1C[C@H]1NCCc2cc(OC)c(OC)cc21` [EMETINE] gave an AC50 [9] of 2.51 µM.

Reference: ChEMBL document CHEMBL5291721, “A preclinical secondary pharmacology resource illuminates target-adverse drug reaction associations of marketed drugs” (Nat Commun, 2023)
